Laboratory results as given in US12006328B2, “Thieno[2,3-d]pyrimidin-4-one derivatives as NMDAR modulators and uses related thereto” (Emory University, priority 2014, dated 2024).

Legend:
Assay type in all cases: cell-based
[1] = target: GluN2C-containing NMDA receptors (Homo sapiens, UniProt Q14957); assay: Two-electrode voltage-clamp recordings from Xenopus laevis oocytes, GluN2C; conditions: for I10 μM/ICONTROL (mean ± SEM, %) Glu N2C: 10 μM test compound with glutamate 100 μM and glycine 30 μM, Tables 1-5; for I10 μM/ICONTROL (mean ± SEM, %) Glu N2C / maximal potentiation Glu N2C: percent of response without compound; for EC50 / maximal potentiation Glu N2C: Table 1; for EC50: glutamate 100 μM, glycine 30 μM, Hill fit, read-out: EC50 Glu N2C; for maximal potentiation Glu N2C: in brackets after EC50
Protocol: (§1) Xenopus laevis oocytes were injected with cRNA encoding the NMDA receptor subunits. Two to seven days after injection, two-electrode voltage-clamp recordings were performed. Extracellular solutions were made from a solutions containing (in mM) 90 NaCl, 3 KCl, 10 HEPES, 0.5 BaCl2, 0.01 EDTA (pH 7.4 with NaOH). Voltage and current electrodes were filled with 0.3 M and 3.0 M KCl, respectively.
(§2) Potency was determined by adding increasing concentrations of test compound to saturating concentrations of glutamate (100 μM) and glycine (30 μM), and the response amplitude measured. The response in the presence of each concentration of test compound plus agonists was expressed as a percent of the response in the absence of test compound.

[2] = target: GluN2D-containing NMDA receptors (Homo sapiens, UniProt O15399); assay: Two-electrode voltage-clamp recordings from Xenopus laevis oocytes, GluN2D; conditions: for I10 μM/ICONTROL (mean ± SEM, %) Glu N2D: 10 μM test compound with glutamate 100 μM and glycine 30 μM, Tables 1-5; for I10 μM/ICONTROL (mean ± SEM, %) Glu N2D / maximal potentiation Glu N2D: percent of response without compound; for EC50 / maximal potentiation Glu N2D: Table 1; for EC50: glutamate 100 μM, glycine 30 μM, Hill fit, read-out: EC50 Glu N2D; for maximal potentiation Glu N2D: in brackets after EC50
Protocol: as §1, §2

[3] = target: GluN2B-containing NMDA receptors (Homo sapiens, UniProt Q13224); assay: Two-electrode voltage-clamp recordings from Xenopus laevis oocytes, GluN2B; conditions: for I10 μM/ICONTROL (mean ± SEM, %) Glu N2B: 10 μM test compound with glutamate 100 μM and glycine 30 μM, Tables 1-5; for I10 μM/ICONTROL (mean ± SEM, %) Glu N2B / maximal potentiation Glu N2B: percent of response without compound; for EC50 / maximal potentiation Glu N2B: Table 1; for EC50: glutamate 100 μM, glycine 30 μM, Hill fit, read-out: EC50 Glu N2B; for maximal potentiation Glu N2B: in brackets after EC50
Protocol: as §1, §2

Sequence of GluN2B-containing NMDA receptors (Q13224 27-1484, other chains not shown): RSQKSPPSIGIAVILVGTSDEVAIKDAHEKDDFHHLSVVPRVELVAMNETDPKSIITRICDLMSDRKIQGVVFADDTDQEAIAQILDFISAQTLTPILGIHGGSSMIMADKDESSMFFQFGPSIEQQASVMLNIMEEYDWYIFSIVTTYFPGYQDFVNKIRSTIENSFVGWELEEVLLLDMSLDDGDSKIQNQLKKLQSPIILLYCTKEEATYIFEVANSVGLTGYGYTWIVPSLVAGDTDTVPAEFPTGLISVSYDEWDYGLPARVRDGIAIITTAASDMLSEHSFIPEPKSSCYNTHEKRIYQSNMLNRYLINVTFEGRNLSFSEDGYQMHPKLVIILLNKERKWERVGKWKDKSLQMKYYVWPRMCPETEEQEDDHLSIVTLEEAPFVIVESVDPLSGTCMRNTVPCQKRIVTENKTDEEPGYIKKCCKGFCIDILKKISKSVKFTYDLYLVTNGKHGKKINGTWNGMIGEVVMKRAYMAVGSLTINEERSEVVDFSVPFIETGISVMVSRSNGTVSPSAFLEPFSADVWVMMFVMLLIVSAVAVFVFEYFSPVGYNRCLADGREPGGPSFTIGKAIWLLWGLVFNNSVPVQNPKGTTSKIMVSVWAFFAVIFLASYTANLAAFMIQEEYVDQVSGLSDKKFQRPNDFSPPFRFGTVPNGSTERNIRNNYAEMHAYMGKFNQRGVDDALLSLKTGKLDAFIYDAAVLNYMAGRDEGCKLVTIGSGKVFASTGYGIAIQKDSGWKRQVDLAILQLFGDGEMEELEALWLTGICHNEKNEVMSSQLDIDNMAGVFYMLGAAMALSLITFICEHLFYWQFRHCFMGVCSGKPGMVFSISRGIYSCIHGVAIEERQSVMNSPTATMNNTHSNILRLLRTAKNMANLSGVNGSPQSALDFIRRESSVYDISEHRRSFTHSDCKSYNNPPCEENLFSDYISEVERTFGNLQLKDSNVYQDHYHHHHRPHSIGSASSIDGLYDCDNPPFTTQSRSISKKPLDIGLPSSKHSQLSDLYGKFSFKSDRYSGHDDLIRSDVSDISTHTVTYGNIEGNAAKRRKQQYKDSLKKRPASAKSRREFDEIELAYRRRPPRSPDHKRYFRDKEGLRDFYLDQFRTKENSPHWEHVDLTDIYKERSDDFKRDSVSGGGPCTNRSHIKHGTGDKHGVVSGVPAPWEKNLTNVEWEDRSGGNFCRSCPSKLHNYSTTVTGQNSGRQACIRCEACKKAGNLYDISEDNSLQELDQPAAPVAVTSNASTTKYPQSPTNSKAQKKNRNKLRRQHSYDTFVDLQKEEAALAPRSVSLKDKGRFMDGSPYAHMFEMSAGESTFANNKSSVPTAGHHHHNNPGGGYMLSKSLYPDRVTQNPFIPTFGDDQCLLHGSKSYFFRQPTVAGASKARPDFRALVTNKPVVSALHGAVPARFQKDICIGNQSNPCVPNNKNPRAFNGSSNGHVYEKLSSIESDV
Sequence of GluN2D-containing NMDA receptors (O15399 28-1336, other chains not shown): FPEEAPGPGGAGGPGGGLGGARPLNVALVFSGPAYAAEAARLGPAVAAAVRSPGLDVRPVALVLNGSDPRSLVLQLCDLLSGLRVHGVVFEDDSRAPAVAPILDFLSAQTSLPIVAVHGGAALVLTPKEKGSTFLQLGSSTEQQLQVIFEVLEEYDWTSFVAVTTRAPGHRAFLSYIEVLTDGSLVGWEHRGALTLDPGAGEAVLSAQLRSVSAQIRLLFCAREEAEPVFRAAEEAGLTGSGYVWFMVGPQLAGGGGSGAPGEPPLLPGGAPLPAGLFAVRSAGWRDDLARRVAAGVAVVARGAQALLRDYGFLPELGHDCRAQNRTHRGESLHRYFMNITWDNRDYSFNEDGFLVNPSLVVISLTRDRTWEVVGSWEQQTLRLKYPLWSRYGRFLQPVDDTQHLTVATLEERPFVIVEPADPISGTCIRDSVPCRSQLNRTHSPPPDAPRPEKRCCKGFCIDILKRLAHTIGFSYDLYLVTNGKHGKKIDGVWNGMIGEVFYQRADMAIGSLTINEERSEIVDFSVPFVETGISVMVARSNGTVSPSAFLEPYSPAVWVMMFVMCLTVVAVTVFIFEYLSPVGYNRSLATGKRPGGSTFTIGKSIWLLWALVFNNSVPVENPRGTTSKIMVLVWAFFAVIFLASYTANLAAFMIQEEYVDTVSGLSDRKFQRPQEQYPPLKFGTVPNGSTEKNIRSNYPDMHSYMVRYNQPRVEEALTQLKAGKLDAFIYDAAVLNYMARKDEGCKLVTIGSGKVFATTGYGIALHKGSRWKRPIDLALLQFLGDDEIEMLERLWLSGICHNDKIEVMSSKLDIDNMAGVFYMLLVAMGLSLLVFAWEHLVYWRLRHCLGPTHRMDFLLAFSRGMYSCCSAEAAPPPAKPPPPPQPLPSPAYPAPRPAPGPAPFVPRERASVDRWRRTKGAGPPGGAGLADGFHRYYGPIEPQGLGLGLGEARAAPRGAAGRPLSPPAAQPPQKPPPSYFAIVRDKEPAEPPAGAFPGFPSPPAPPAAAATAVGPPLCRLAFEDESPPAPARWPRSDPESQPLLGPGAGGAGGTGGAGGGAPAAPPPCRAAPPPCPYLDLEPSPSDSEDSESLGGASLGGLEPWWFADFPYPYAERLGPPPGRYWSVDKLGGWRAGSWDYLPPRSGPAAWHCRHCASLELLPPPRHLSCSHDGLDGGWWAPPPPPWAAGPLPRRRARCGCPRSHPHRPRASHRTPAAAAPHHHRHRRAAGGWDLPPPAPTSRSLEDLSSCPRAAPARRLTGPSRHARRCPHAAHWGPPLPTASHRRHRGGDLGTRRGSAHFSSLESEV
Sequence of GluN2C-containing NMDA receptors (Q14957 20-1233, other chains not shown): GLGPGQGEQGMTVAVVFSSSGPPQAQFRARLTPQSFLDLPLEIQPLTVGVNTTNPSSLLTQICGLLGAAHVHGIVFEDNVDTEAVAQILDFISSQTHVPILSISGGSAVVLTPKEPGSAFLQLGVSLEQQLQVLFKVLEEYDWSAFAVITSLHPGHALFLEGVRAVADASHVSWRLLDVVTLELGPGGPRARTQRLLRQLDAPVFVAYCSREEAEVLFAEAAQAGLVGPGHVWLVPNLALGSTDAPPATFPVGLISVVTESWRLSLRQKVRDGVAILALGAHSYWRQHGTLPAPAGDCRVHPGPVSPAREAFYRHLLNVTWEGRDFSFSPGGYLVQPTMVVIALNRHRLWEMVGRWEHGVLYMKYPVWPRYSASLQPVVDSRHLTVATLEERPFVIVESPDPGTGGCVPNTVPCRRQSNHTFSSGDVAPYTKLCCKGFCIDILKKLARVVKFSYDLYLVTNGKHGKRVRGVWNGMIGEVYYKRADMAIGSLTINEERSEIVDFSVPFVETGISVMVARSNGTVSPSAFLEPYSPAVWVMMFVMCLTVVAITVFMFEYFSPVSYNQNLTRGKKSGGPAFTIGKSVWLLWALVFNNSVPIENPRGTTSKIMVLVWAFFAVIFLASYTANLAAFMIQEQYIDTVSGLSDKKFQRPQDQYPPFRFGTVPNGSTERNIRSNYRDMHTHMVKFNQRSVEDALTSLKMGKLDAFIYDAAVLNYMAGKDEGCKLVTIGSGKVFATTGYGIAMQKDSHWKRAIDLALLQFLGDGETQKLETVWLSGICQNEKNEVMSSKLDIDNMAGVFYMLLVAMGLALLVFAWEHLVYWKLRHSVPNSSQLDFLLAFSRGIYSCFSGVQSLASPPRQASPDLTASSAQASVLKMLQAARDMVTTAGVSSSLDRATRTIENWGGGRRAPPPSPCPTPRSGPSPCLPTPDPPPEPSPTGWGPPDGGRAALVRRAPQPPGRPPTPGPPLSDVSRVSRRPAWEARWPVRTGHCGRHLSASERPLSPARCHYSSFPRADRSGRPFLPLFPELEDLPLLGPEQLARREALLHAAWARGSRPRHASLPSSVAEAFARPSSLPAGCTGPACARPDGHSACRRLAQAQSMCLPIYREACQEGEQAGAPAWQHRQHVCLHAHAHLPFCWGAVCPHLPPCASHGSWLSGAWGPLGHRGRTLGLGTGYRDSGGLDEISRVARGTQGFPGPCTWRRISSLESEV

Compound	I10 μM/ICONTROL (mean ± SEM, %) Glu N2C [1] [%]	I10 μM/ICONTROL (mean ± SEM, %) Glu N2D [2] [%]	I10 μM/ICONTROL (mean ± SEM, %) Glu N2B [3] [%]	EC50 [1] [µM]	maximal potentiation Glu N2C [1] [%]	EC50 [2] [µM]	maximal potentiation Glu N2D [2] [%]	EC50 [3] [µM]	maximal potentiation Glu N2B [3] [%]
COCCn1cc(Cn2cnc3sc(C)c(-c4cccc(Cl)c4)c3c2=O)nn1	93 ± 2.2	84 ± 3.4	99 ± 1.9						
Cc1sc2ncn(CC(=O)N3CCCC3)c(=O)c2c1-c1cc(I)cc(I)c1 [3,5-I—Ph / Me]	167 ± 9.6	151 ± 6.3	152 ± 8.8	35	493	32	432	20	259
COc1ccc(C(=O)Cn2cnc3sc4c(c3c2=O)CCCC4)c(OC)c1 [2,4-OMe]	94 ± 1.4	90 ± 0.7	95 ± 1.8						
Cc1sc2ncn(CC(=O)N3CCCC3)c(=O)c2c1-c1ccccc1C(F)(F)F [2-CF3—Ph / Me]	95 ± 2.1	94 ± 1.4	93 ± 2.0						
Cc1sc2ncn(CC(=O)N3CCCC3)c(=O)c2c1-c1cc(Br)cc(Br)c1 [3,5-Br—Ph / Me]	195 ± 6.9	230 ± 13.5	156 ± 5.2	2.2	195	3.86	202	1.08	143
Cc1sc2ncn(CC(=O)N3CCCC3)c(=O)c2c1-c1cccc(Br)c1 [3-Br—Ph / Me]	241 ± 19.7	239 ± 11.5	172 ± 8.7	17	568	21	687	11	266
Cc1sc2ncn(CCC(=O)N3CCCC3)c(=O)c2c1-c1cccc(Cl)c1 [2 / 3-Cl—Ph / Me / —Npyrrolidine]	99 ± 5.0	90 ± 1.7	95 ± 1.7						
Cc1sc2ncn(CC(=O)N3CCCC3)c(=O)c2c1-c1cccc(N=[N+]=[N-])c1 [3-N3—Ph / Me]	264 ± 17.7	175 ± 9.4	176 ± 8.1	10	613	10	592	23.8	295
CSc1ccc(-c2csc3ncn(CC(=O)N4CCCC4)c(=O)c23)cc1 [4-MeS—Ph / H]	99 ± 2.5	96 ± 2.6	102 ± 4.6						
Cc1sc2ncn(CC(=O)N3CCCC3)c(=O)c2c1-c1cccc(-n2cncn2)c1 [3-1,2,4 triazolyl-Ph / Me]	113 ± 5.8	108 ± 6.2	110 ± 2.6	44	308	108	239	293	402
CCOC(=O)CCn1cnc2sc(C)c(-c3cccc(Cl)c3)c2c1=O [2 / 3-Cl—Ph / Me / OEt]	91 ± 2.5	97 ± 1.6	107 ± 2.3						
